{"source": "patent US20240024216A1", "about": "“METHODS AND MATERIALS FOR TREATING HAIR LOSS” (The Penn State Research Foundation, priority 2021, published 2024)", "key": {"[1]": {"system": "keratinocytes, Schwann cells and fibroblast", "assay": "Cell viability MTT assay", "type": "cell-based, human", "conditions": "concentrations of 4-AP used in vitro; 24 hours", "description": "The keratinocytes, Schwann cells and fibroblast were culture on 96-well plates, the wells were pre-coated with respective coating matrix in complete growth medium and incubated cells for 12-18 hours at 37° C. in 5% CO2 incubator. Cells were washed with PBS and added basal Schwann cells/fibroblast/keratinocytes medium to starve, then incubated for 4 hours at 37° C. with 5% CO2. After the incubation period, various concentrations of 4-AP (concentrations ranging from 1 to 10000 μM) in 100 μL containing respective medium's (complete keratinocytes, Schwann cells and fibroblast medium), cells were incubated either 24 hours at +37° C. and 5% CO2 incubator. After completion of incubation time, 10 μL of the MTT labeling reagent (final concentration 0.5 mg/ml) was added to each well and incubate at +37° C. for 4 hours in a humidified atmosphere. Then, 100 μL of the solubilization solution into each well and allow the plate to stand in the incubator overnight or until the formazan crystals had dissolved. […] The formazan absorbance was read using wavelength of 550 nm in a plate reader. The color of optical density (OD) is directly propositional to number of live cells. The percentage of live keratinocytes/Schwann cells/fibroblast cells was determined using the following formula. […]"}, "[2]": {"system": "wound healing mouse skin sections", "assay": "Immunostaining and western blot of day 14 wound tissue markers", "type": "in vivo, mice", "description": "Briefly, immunohistochemical and immunofluorescence analysis were performed on 5 μm thick wound healing mouse skin sections. The sections were deparaffinized and subjected to an antigen retrieval process by using sodium citrate buffer at 95° C. followed by immersed in 0.5% triton X-100. The section slides were blocked using 5% goat serum in 0.1% PBS-T for 1 hour. The following primary antibodies mouse monoclonal [LL002] anti-Cytokeratin14 (catalog No.—ab7800; IF-1:100), rat CD31 antibody (Catalog No.—553370; IF-1:100), mouse S100 antibody (Catalog No.—MA5-12969; IF-1:200), rabbit nerve growth factor receptor—p75-NTR antibody (Catalog No.—AB1554; IF and WB-1:500), Chicken neurofilament Heavy-NFH antibody (Catalog No.—NB300-217; IF-1:500), mouse alpha-smooth muscle actin —α-SMA antibody (Catalog No.—14-9760-82; IF-1:200 and WB-1:500), mouse TGF beta antibody (Catalog No.—27969; IF-1:100 and WB-1:500), rabbit Ki67 antibody (Catalog No.—9129S; IF-1:400), chicken keratin 15 antibody (Catalog No. —833901; IF-1:500), rabbit K17 antibody (gift from Pierre a. coulombe Lab; IF-1:1000), rabbit interleukin-1 beta antibody (Catalog No.—GTX74034; IF-1:100), rat F4/80 antibody (Catalog No.—MCA497GA; IF-1:100), mouse anti-SOX10 antibody (Catalog No.—sc-365692; IF-1:100 and WB-1:200), chicken anti-myelin basic protein antibody (Catalog No.—MBP; IF-1:1000), rabbit vimentin antibody (Catalog No.—10366-1-AP; IF-1:200), rabbit NGF antibody (Catalog No.—MA5-32067; IF-1:100 and WB-1:1000), mouse PGP 9.5 antibody (Catalog No.—PA5-29012; IF-1:200), chicken anti-P-zero myelin protein antibody (Catalog No.—PZO; IF-1:200), and rat substance P antibody (Catalog No. —NB100-65219; IF-1:100) were overnight incubated with 5% BSA in 0.1% PBS-T for IF stain and/or 5% skimmed milk in 0.1% TBS-T for Western blot at 4° C., then incubated with secondary antibodies for 1 hour at room temperature. The ProLong™ Gold Anti-fade Mountant with DAPI (Invitrogen, Caltlog No. P36935) used as nuclear counterstain. The immunofluorescence stained sections were imaged using ZEISS Axio Observer 7—Axiocam 506 mono—Apotome.2 microscope. The image analysis and quantification were formed either using ZEN 2.6 pro (Zeiss) imaging software or ImageJ-1.53e software (National Institutes of Health, USA).\nFor protein isolation the harvested skin tissue was flash frozen immediately. The frozen skin tissue ground to a fine power using a liquid nitrogen mortar. The harvested cells and/or tissue powder dissolved in RIPA buffer containing Halt™ Phosphatase (Thermo Scientific, Catlog No. 78420,) and Protease Inhibitor Cocktail (Roche complete tablets mini EASYpack, Catlog No. 04694124001). Tissue and cell debris removed by centrifuged at 14000 rpm for 30 minutes at 4° C. The supernatant was collected and the total protein concentration was determined by BCA protein assay (Thermo Scientific™ Pierce™, Catlog No. 23225). The proteins (20-30 μg) of the tissue protein samples were subjected to 12% sodium dodecyl sulfate polyacrylamide gel electrophoresis (Bio-Rad mini-PROTEAN TGX Gels, Catlog No. 4561044) and transferred to polyvinylidene fluoride (PVDF) membranes. After the membranes were blocked with 5% skimmed milk in 1×TBS-T for 1 hour, they were incubated with the appropriate primary antibodies (1:200-1:1000) at 4° C. overnight, then incubated with HRP-conjugated secondary antibodies (1:3000) for 1 hour. Immunoreactivity was then detected using chemiluminescent substrate (Thermo Scientific™ SuperSignal™ West Pico PLUS, Catlog No. 34577). The intensities of the bands were quantified using Gel-imaging software. The quantified band intensity were normalized using GAPDH and expressed either normalized intensity or ratios with respect to saline treated mice."}, "[3]": {"conditions": "day 14, vs saline treated controls"}}, "data": [{"smiles": "Nc1ccncc1", "note": "[4-AP, 4-aminopyridine]", "values": [{"measurement": "cell viability", "setting": "[1]", "value": "not affected"}, {"measurement": "keratinocyte K10 expression in healed epidermis", "setting": "[2]; day 14", "value": "did not cause any change"}, {"measurement": "levels of PGP 9.5 compared with uninjured tissue", "setting": "[2]; day 14", "value": "not significantly different"}, {"measurement": "K17 expressing cells", "setting": "[2]; day 14, vs control group", "value": "more abundant"}, {"measurement": "inflammatory cells (IL-1β) and macrophages (F4/80) in granulation tissue", "setting": "[2]; day 14, vs control wounds", "value": "less of inflammatory cells and macrophages"}, {"measurement": "fold increase in Ki-67+", "setting": "[2]; [3]", "value": 2, "unit": "fold"}, {"measurement": "fold increase in NF-H axonal counts", "setting": "[2]; [3]", "value": 2.5, "unit": "fold"}, {"measurement": "fold increase in S100+ cells", "setting": "[2]; [3]", "value": 3, "unit": "fold"}, {"measurement": "increase in K15+ cells", "setting": "[2]; [3]", "value": "two fold increase"}, {"measurement": "SOX10 expression", "setting": "[2]; day 14, vs saline treated mice", "value": "Significantly increased"}, {"measurement": "fold increase in NGF expression", "setting": "[2]; day 14, vs saline treated mice", "value": 4, "unit": "fold"}, {"measurement": "substance-P expression", "setting": "[2]; day 14, vs saline treated mice", "value": "Significantly increased"}, {"measurement": "fold increase in K14+ keratinocytes", "setting": "[2]; day 14, vs saline-treated mice", "value": 2.5, "unit": "fold"}, {"measurement": "double positive (S100+, p75-NTR+) SCs", "setting": "[2]; day 14, vs saline, confirmed by WB for p75-NTR", "value": "increased numbers"}, {"measurement": "K14+ keratinocytes", "setting": "[2]; day 14 wound bed", "value": "13.72±1.403", "unit": "%"}, {"measurement": "Ki-67+ in hair follicle bulges and epidermis", "setting": "[2]; day 14 wound tissue", "value": "21.87±2.763", "unit": "cells/mm^2"}, {"measurement": "NF-H axonal counts", "setting": "[2]; day 14 wound tissue", "value": "194±50.51", "unit": "count/mm^2"}, {"measurement": "NGF expression", "setting": "[2]; day 14 wound tissue", "value": "2429872±375280", "unit": "integrated density/mm^2"}, {"measurement": "S100+ cells around nerve bundles", "setting": "[2]; day 14 wound tissue", "value": "6.483±1.163", "unit": "% positive cells"}, {"measurement": "CD31 intensity (blood vessels)", "setting": "[2]; day 14 wound tissue, vs saline", "value": "statistically significant increases"}, {"measurement": "TGF-β protein expression", "setting": "[2]; day 14 wound tissue, vs saline", "value": "significant increases"}, {"measurement": "vimentin-positive fibroblasts", "setting": "[2]; day 14 wound tissue, vs saline", "value": "more vimentin-positive fibroblasts"}, {"measurement": "α-SMA-positive myofibroblasts", "setting": "[2]; day 14 wound tissue, vs saline", "value": "more"}, {"measurement": "PGP 9.5+ nerve fibres", "setting": "[2]; fourteen days post wound", "value": "4096938±713297", "unit": "integrated density/mm^2"}, {"measurement": "PGP 9.5+ nerve fibres relative to saline treated mice", "setting": "[2]; fourteen days post wound", "value": "twice as abundant"}]}]}
